Experimental data reported in the kinase profiling compilation of Christmann-Franck et al. (2016).

Experiments:
Test in all cases: KINOMEscan competition binding
Conditions in all cases: compound 10.0 µM
NLK (human) = NLK (human) (UniProt Q9UBE8)
GRK4 (human) = GRK4 (human) (UniProt P32298)
TAOK1 (human) = TAOK1 (human) (UniProt Q7L7X3)
PLK2 (human) = PLK2 (human) (UniProt Q9NYY3)
CHEK1 (human) = CHEK1 (human) (UniProt O14757)
EPHB3 (human) = EPHB3 (human) (UniProt P54753)
MAPK7 (human) = MAPK7 (human) (UniProt Q13164)
CDC42BPG (human) = CDC42BPG (human) (UniProt Q6DT37)
FLT1 (human) = FLT1 (human) (UniProt P17948)
MAP3K2 (human) = MAP3K2 (human) (UniProt Q9Y2U5)
AKT1 (human) = AKT1 (human) (UniProt P31749)
CDC2L2 (human) = CDC2L2 (human) (UniProt Q9UQ88)
MARK4 (human) = MARK4 (human) (UniProt Q96L34)
PIP5K1C (human) = PIP5K1C (human) (UniProt O60331)
DMPK (human) = DMPK (human) (UniProt Q09013)
NTRK3 (human) = NTRK3 (human) (UniProt Q16288)
RIOK1 (human) = RIOK1 (human) (UniProt Q9BRS2)
MAP3K13 (human) = MAP3K13 (human) (UniProt O43283)
FGFR3 (human) = FGFR3 (human) (UniProt P22607)
IKBKB (human) = IKBKB (human) (UniProt O14920)
MAP4K5 (human) = MAP4K5 (human) (UniProt Q9Y4K4)
EPHA3 (human) = EPHA3 (human) (UniProt P29320)
STK25 (human) = STK25 (human) (UniProt O00506)
[1] = tested on: RET (human), P07949 [M918T]
CSNK1A1L (human) = CSNK1A1L (human) (UniProt Q8N752)
SYK (human) = SYK (human) (UniProt P43405)
ACVR1B (human) = ACVR1B (human) (UniProt P36896)
SLK (human) = SLK (human) (UniProt Q9H2G2)
CLK2 (human) = CLK2 (human) (UniProt P49760)
EPHA4 (human) = EPHA4 (human) (UniProt P54764)
CDK15 (human) = CDK15 (human) (UniProt Q96Q40)
[2] = tested on: ABL1 (human), P00519 [Y253F]
ERBB3 (human) = ERBB3 (human) (UniProt P21860)
MYLK (human) = MYLK (human) (UniProt Q15746)
CDKL5 (human) = CDKL5 (human) (UniProt O76039)
MAP3K15 (human) = MAP3K15 (human) (UniProt Q6ZN16)
PIK3CD (human) = PIK3CD (human) (UniProt O00329)
RPS6KA1 KD2 (human) = RPS6KA1 KD2 (human) (UniProt Q15418)
MAPKAPK2 (human) = MAPKAPK2 (human) (UniProt P49137)
STK35 (human) = STK35 (human) (UniProt Q8TDR2)

Sequence of CDC42BPG (human) (Q6DT37 whole entry, looked up): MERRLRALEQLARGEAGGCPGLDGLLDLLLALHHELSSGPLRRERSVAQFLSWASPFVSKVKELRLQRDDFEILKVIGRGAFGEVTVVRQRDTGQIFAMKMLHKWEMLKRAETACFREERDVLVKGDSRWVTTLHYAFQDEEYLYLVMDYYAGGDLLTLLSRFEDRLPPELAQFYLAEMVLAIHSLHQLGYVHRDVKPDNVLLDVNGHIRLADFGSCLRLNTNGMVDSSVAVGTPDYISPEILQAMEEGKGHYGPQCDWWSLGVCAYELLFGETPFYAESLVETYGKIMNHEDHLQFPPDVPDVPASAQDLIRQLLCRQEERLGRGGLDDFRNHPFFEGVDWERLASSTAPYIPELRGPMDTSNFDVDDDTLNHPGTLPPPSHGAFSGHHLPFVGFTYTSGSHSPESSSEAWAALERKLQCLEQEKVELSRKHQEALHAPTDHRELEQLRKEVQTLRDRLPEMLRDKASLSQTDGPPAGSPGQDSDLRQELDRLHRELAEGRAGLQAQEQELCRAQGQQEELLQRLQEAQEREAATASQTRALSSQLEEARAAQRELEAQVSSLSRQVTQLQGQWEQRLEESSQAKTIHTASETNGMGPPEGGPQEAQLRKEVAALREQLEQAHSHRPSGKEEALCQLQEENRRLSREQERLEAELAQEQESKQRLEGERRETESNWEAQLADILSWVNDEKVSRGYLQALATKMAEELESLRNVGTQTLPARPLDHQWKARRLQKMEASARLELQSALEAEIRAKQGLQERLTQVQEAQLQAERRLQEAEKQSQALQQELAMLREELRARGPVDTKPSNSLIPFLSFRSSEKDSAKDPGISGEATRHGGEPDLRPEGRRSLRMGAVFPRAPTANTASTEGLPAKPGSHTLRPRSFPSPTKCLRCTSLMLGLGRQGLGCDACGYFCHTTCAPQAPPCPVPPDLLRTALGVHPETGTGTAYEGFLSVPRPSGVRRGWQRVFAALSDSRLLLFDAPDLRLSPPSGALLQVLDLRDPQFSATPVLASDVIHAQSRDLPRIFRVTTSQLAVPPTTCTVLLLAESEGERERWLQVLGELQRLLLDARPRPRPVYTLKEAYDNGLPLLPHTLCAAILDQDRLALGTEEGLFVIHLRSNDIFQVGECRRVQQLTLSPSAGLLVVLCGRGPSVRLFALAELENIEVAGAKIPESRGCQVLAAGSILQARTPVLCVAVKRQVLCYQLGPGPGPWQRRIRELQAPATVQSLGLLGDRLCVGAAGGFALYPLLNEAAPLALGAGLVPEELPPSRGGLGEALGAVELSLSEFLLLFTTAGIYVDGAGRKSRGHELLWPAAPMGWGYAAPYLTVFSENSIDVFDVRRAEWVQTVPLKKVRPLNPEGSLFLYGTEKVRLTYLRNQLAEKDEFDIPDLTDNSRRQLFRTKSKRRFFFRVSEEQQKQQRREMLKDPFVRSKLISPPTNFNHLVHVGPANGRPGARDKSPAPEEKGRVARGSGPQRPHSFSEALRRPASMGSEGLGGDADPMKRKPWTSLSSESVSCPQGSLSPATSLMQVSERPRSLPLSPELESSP
Sequence of SLK (human) (Q9H2G2 whole entry, looked up): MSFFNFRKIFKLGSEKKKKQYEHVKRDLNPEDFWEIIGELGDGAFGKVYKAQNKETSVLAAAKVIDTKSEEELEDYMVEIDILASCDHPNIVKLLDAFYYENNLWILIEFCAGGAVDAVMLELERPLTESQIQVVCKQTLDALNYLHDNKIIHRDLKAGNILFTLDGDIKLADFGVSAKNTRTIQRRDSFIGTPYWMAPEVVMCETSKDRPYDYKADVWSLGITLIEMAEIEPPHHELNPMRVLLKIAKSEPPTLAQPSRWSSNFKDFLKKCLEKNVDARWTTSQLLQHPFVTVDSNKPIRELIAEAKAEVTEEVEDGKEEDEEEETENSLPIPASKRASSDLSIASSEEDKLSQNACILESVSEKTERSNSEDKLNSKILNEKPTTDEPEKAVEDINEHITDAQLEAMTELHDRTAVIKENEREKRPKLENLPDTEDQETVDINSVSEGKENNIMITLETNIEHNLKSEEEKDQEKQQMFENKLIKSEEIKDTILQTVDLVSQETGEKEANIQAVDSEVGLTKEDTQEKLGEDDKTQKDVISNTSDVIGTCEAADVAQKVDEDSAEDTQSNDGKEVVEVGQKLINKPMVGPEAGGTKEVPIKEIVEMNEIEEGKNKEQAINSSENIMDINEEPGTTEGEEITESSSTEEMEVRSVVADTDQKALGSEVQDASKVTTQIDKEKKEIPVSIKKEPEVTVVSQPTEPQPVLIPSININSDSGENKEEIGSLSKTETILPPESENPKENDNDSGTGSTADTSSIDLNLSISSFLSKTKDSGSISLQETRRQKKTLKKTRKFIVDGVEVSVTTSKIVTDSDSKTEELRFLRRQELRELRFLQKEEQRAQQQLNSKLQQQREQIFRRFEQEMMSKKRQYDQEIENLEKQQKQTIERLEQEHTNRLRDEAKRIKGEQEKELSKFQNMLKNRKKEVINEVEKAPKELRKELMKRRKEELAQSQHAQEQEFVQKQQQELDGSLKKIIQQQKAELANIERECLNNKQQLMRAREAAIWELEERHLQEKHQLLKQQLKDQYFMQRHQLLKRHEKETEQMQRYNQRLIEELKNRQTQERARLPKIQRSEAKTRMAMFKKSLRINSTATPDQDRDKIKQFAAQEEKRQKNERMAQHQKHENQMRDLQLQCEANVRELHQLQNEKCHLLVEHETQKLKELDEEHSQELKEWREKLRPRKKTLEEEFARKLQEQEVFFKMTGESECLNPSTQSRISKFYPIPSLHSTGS
Sequence of AKT1 (human) (P31749 whole entry, looked up): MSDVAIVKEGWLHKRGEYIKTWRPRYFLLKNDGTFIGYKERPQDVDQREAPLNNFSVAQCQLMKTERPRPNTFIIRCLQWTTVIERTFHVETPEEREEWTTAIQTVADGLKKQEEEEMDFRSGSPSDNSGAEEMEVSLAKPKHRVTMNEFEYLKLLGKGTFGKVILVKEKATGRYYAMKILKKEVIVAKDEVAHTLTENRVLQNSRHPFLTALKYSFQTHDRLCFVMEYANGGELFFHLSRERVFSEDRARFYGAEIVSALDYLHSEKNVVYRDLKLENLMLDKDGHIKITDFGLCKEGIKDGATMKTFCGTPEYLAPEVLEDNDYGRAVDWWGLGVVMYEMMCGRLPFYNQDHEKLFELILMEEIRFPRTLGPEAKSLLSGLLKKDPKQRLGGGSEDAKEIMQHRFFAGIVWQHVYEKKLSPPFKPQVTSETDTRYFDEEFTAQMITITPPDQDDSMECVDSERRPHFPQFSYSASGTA
Sequence of CDKL5 (human) (O76039 whole entry, looked up): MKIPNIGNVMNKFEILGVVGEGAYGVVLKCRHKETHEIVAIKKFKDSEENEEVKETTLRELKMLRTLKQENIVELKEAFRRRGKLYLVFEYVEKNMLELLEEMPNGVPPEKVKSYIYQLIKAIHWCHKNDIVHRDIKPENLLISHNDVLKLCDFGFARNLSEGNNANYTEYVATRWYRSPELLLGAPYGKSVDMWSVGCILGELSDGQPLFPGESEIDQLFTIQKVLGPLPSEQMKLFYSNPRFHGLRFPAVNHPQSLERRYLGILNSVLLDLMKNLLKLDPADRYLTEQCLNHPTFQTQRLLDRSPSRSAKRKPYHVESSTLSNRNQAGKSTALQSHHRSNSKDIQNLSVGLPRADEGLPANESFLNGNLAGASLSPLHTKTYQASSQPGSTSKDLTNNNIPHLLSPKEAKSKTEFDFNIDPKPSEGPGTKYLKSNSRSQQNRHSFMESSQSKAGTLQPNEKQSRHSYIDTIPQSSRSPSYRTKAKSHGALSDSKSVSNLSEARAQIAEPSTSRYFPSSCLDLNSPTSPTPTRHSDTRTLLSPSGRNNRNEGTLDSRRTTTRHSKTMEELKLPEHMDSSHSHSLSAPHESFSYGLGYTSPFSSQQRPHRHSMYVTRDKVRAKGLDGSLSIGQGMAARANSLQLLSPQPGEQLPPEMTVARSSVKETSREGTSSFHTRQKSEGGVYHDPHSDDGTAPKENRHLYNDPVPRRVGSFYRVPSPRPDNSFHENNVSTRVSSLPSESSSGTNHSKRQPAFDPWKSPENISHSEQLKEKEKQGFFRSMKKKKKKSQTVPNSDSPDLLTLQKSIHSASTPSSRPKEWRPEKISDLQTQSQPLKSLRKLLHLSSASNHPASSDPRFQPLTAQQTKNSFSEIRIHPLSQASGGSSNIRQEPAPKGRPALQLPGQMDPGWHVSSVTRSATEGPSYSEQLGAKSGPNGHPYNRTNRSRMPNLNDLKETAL
Sequence of MARK4 (human) (Q96L34 whole entry, looked up): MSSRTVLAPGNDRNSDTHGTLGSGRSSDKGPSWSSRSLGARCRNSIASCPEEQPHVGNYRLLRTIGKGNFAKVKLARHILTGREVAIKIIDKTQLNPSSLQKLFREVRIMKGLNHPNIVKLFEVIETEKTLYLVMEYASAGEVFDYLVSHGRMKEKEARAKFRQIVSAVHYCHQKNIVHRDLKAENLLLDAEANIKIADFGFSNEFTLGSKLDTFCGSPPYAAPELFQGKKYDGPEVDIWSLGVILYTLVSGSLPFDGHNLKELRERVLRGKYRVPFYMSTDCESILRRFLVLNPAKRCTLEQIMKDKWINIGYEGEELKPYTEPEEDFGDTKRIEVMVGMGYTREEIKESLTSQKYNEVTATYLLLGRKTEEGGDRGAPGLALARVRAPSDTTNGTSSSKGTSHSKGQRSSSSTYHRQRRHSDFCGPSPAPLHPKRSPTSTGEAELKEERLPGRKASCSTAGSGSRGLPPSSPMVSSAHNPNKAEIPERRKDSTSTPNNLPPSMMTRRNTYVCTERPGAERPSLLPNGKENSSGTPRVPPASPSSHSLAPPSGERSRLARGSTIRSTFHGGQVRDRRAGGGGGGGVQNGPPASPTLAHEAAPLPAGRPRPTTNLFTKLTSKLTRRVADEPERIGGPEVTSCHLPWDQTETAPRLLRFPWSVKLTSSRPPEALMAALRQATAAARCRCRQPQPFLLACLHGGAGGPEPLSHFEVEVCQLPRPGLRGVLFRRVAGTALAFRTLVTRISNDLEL

Row | Structure (SMILES) | kinase still bound, per cent of control (NLK (human)) [%] | kinase still bound, per cent of control (GRK4 (human)) [%] | kinase still bound, per cent of control (TAOK1 (human)) [%] | kinase still bound, per cent of control (PLK2 (human)) [%] | kinase still bound, per cent of control (CHEK1 (human)) [%] | kinase still bound, per cent of control (EPHB3 (human)) [%] | kinase still bound, per cent of control (MAPK7 (human)) [%] | kinase still bound, per cent of control (CDC42BPG (human)) [%] | kinase still bound, per cent of control (FLT1 (human)) [%] | kinase still bound, per cent of control (MAP3K2 (human)) [%] | kinase still bound, per cent of control (AKT1 (human)) [%] | kinase still bound, per cent of control (CDC2L2 (human)) [%] | kinase still bound, per cent of control (MARK4 (human)) [%] | kinase still bound, per cent of control (PIP5K1C (human)) [%] | kinase still bound, per cent of control (NTRK3 (human)) [%] | kinase still bound, per cent of control (RIOK1 (human)) [%] | kinase still bound, per cent of control (MAP3K13 (human)) [%] | kinase still bound, per cent of control (FGFR3 (human)) [%] | kinase still bound, per cent of control (IKBKB (human)) [%] | kinase still bound, per cent of control (MAP4K5 (human)) [%] | also measured
1 | COc1cc(C(=O)N2CCC(N3CCN(C)CC3)CC2)ccc1Nc1ncc2c(n1)N(C)c1ccccc1C(=O)N2C | 50 | 86 | 28 | 100 | 100 | 100 | 0.05 | 100 | 100 | 97 | 79 | 82 | 78 | 96 | 100 | 100 | 100 | 80 | 89 | 100 | kinase still bound, per cent of control (DMPK (human)): 100%; kinase still bound, per cent of control (EPHA3 (human)): 100%; kinase still bound, per cent of control (STK25 (human)): 68%; kinase still bound, per cent of control [1]: 100%; kinase still bound, per cent of control (CSNK1A1L (human)): 100%; kinase still bound, per cent of control (SYK (human)): 100%; kinase still bound, per cent of control (ACVR1B (human)): 100%; kinase still bound, per cent of control (SLK (human)): 100%; kinase still bound, per cent of control (CLK2 (human)): 72%; kinase still bound, per cent of control (EPHA4 (human)): 89%; kinase still bound, per cent of control (CDK15 (human)): 100%; kinase still bound, per cent of control [2]: 89%; kinase still bound, per cent of control (ERBB3 (human)): 100%; kinase still bound, per cent of control (MYLK (human)): 8.7%; kinase still bound, per cent of control (CDKL5 (human)): 100%; kinase still bound, per cent of control (MAP3K15 (human)): 69%; kinase still bound, per cent of control (PIK3CD (human)): 62%; kinase still bound, per cent of control (RPS6KA1 KD2 (human)): 10%; kinase still bound, per cent of control (MAPKAPK2 (human)): 100%; kinase still bound, per cent of control (STK35 (human)): 100%
2 | COCC(=O)NC/C=C/c1ccc2ncnc(Nc3ccc(Oc4ccc(C)nc4)c(C)c3)c2c1 | 100 | 100 | 94 | 100 | 90 | 86 | 100 | 90 | 88 | 100 | 100 | 100 | 100 | 93 | 93 | 91 | 80 | 100 | 100 | 86 | kinase still bound, per cent of control (EPHA3 (human)): 97%; kinase still bound, per cent of control (STK25 (human)): 94%; kinase still bound, per cent of control [1]: 77%; kinase still bound, per cent of control (CSNK1A1L (human)): 82%; kinase still bound, per cent of control (SYK (human)): 100%; kinase still bound, per cent of control (ACVR1B (human)): 100%; kinase still bound, per cent of control (SLK (human)): 60%; kinase still bound, per cent of control (CLK2 (human)): 75%; kinase still bound, per cent of control (EPHA4 (human)): 98%; kinase still bound, per cent of control (CDK15 (human)): 71%; kinase still bound, per cent of control (ERBB3 (human)): 20%; kinase still bound, per cent of control (MYLK (human)): 87%; kinase still bound, per cent of control (CDKL5 (human)): 100%; kinase still bound, per cent of control (MAP3K15 (human)): 100%; kinase still bound, per cent of control (PIK3CD (human)): 100%; kinase still bound, per cent of control (RPS6KA1 KD2 (human)): 73%; kinase still bound, per cent of control (MAPKAPK2 (human)): 100%; kinase still bound, per cent of control (STK35 (human)): 65%
